Experimental data from ChEMBL document CHEMBL1134938, “Inhibition of HIV-1 nuclear import via schiff base formation with arylene bis(methylketone) compounds” (Bioorg Med Chem Lett, 2002).

Legend:
[1] = test system: Human immunodeficiency virus 1; assay: Concentration required to block the Nuclear translocation of HIV-1 pre-integration complex with Reverse Transcriptase protein; type: functional, organism-based
[2] = test system: Human immunodeficiency virus 1; assay: Concentration required to block the Nuclear translocation of HIV-1 pre-integration complex with Reverse Transcriptase protein; NA: Not Active; type: functional, organism-based

Row | IC50 [1] | IC50 [2] | Structure (SMILES)
1 | 0.1 µM | – | Cc1cc(Nc2cc(C(=O)O)cc(C(=O)O)c2)nc(N)[n+]1C
2 | 0.1 µM | – | CC(=O)c1cc(Nc2cc(C)[n+](C)c(N)n2)cc(C(C)=O)c1
3 | – | Not Active | Cc1cc(Nc2cc(C(C)O)cc(C(C)O)c2)nc(N)[n+]1C (centres undefined)
4 | – | Not Active | COC(=O)c1cc(Nc2cc(C)[n+](C)c(N)n2)cc(C(=O)OC)c1
